# The source made the active and inactive calls.
# Legend:
# Caspase-8 = Caspase-8 (Homo sapiens, UniProt Q14790); experiment: inhibitors of purified CASP8 protease – biochemical, Z-IETD-R110 fluorescence, cherry-picked samples, selectivity assay for caspase-6 inhibitor project, dose response (AID 743294)
# Caspase-3 = target: T1, Caspase-3 (Homo sapiens, UniProt P42574); experiment: human caspase-3 protease activity blockade – biochemical, fluorescence, cherry-picked samples, selectivity assay for caspase-6 allosteric inhibitor project, dose response (AID 743291)
# T1 sequence (P42574 whole entry): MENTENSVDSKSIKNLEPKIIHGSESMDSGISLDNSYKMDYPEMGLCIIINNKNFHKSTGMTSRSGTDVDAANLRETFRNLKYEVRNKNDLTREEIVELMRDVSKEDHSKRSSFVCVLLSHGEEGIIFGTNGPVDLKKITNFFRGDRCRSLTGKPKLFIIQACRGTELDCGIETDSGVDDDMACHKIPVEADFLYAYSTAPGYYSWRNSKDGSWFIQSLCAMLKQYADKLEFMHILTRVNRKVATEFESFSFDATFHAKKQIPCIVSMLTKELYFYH
# Caspase-9 = Caspase-9 (Homo sapiens, UniProt P55211); experiment: inhibitors of purified CASP9 protease – biochemical, fluorescence, plate reader, cherry-picked samples, selectivity assay for caspase-6 inhibitor project, dose response (AID 743293)
# SUMO-activating enzyme [1] = target: T2, SUMO-activating enzyme (Homo sapiens, UniProt Q9UBT2); experiment: blockers of SAE1/SAE2–UBC9 SUMO transfer – biochemical, HTRF, uHTS, primary screen (AID 2006); format: protein-complex assay
# Hexokinase HKDC1 = Hexokinase HKDC1 (Homo sapiens, UniProt Q2TB90); experiment: inhibition of HKDC1 glucose phosphorylation – biochemical, W721R variant, dose response (AID 504729); format: functional
# SUMO-activating enzyme [2] = target: T2, SUMO-activating enzyme; experiment: blockers of UBC9-mediated SUMO conjugation – biochemical, AlphaScreen, SUMOylation inhibitor project, confirmation (AID 2018); format: functional
# [3] = non-specific 3'UTR reporter inhibition in Clone20-Shn3RL – cell-based, Renilla luciferase, cherry-picked, counter-screen for Shn3 inhibitor project, dose response (AID 624133); format: functional
# [4] = target: T3, Ubiquitin-conjugating enzyme E2 N (Homo sapiens, UniProt P61088); format: functional
# T3 sequence (P61088 whole entry): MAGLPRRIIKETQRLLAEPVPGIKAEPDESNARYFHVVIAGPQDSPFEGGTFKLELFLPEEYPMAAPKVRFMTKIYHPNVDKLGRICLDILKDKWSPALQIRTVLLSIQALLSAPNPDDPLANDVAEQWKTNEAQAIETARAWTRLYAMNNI
# [5] = target: Heat shock protein HSP 90-alpha (Homo sapiens, UniProt P07900); format: functional, organism-based
# [6] = target: Neurotensin receptor type 1 (Homo sapiens, UniProt P30989); format: functional;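 also: Image-based confirmatory dose-response assay measuring agonist activity at NTR1; NTR1-expressing U2OS osteosarcoma cells imaged for beta-arrestin GFP spot formation; agonist potency where compounds increase beta-arrestin recruitment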
# Melanocortin receptor 4 = Melanocortin receptor 4 (Homo sapiens, UniProt P32245); format: functional, cell-based;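 also: Cell-based assay with luminescence read-out, confirmatory dose-response testing for agonist activity of biased ligands at MC4R; human U2OS cells with tagged receptor and beta-arrestin; potency of agonists that increase receptor coupling to beta-arrestin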
# INS1 = experiment: INS-1E survival protection against cytokine death – cell-based, luminescence, retest, dose response (AID 449756); format: functional;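 also: cell death triggered by IL-1 beta plus TNF-alpha plus IFN-gamma mixture; protective hits raise ATP signal compared with cytokine alone wells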
# Bcl-2-related protein A1 = target: T4, Bcl-2-related protein A1 (Mus musculus, UniProt Q07440); format: functional;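 also: confirmatory dose–response counterscreen on Bfl-1, used to check hits from a UBC13 polyubiquitin inhibitor campaign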
# T4 sequence (Q07440 whole entry): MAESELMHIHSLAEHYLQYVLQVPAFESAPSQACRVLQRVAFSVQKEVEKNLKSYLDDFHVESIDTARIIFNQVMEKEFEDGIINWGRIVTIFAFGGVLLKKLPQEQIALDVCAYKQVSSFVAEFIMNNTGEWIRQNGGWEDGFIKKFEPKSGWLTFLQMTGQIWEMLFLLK
# [7] = reduction of Shn3 3'UTR-driven luciferase in osteoblasts – cell-based, Clone20 osteoblasts, firefly luciferase, cherry-picked, dose response (AID 624132); format: functional;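 also: firefly luciferase luminescence from reporter carrying the Shn3 3'UTR in osteoblasts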
# [8] = target: T5, Polyadenylate-binding protein 1 (Homo sapiens, UniProt P11940); experiment: MLLE domain peptide-binding blockers, IC50 – biochemical, fluorescence polarization, FITC-PAM2 peptide, dose response (AID 602259); format: functional; conditions: read-out: IC50_Mean
# [9] = target: T5, Polyadenylate-binding protein 1; experiment: MLLE binding blockers, Cy5 peptide tracer – biochemical, fluorescence polarization, Cy5-PAM2 peptide, secondary, miRNA deadenylation inhibitor project, dose response (AID 602260); format: functional; conditions: read-out: IC50_Mean
# [10] = target: T6, Microphthalmia-associated transcription factor (Homo sapiens, UniProt O75030); experiment: reducers of TRPM1 reporter luminescence, concentration series – cell-based, SK-MEL-5, cherry-picked, set 3, MITF inhibitor project, dose response (AID 493073); format: functional;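 also: SK-MEL-5 melanoma cells with luciferase driven by the MITF target TRPM1 promoter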
# T6 sequence (O75030 whole entry): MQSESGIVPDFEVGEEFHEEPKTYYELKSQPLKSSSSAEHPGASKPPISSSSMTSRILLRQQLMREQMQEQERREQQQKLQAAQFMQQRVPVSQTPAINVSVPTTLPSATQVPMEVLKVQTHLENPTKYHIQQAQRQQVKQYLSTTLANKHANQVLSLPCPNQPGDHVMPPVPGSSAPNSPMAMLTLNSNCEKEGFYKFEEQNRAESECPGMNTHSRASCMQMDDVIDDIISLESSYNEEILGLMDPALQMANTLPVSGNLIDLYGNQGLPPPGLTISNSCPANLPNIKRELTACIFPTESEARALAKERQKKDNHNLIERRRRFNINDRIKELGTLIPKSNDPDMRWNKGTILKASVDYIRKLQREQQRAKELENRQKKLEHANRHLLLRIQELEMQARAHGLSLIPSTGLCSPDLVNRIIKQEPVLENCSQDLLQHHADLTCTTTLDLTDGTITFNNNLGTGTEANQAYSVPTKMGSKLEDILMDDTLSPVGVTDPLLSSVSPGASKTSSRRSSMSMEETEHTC
# Vero = experiment: viability of Vero cells under compound – cytotoxicity control for flavivirus capping enzyme inhibitors (AID 588742); format: functional; conditions: Chlorocebus sabaeus
# T2 sequence (Q9UBE0 whole entry): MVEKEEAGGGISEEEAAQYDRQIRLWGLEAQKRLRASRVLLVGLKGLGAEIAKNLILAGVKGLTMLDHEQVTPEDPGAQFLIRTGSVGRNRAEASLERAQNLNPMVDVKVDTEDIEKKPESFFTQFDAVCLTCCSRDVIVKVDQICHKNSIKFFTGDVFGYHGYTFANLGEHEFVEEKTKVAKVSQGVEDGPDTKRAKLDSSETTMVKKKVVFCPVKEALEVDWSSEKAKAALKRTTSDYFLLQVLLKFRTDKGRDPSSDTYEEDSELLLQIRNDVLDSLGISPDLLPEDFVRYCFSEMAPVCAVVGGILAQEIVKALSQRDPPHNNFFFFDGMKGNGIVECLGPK
# T2 sequence (Q9UBT2 whole entry): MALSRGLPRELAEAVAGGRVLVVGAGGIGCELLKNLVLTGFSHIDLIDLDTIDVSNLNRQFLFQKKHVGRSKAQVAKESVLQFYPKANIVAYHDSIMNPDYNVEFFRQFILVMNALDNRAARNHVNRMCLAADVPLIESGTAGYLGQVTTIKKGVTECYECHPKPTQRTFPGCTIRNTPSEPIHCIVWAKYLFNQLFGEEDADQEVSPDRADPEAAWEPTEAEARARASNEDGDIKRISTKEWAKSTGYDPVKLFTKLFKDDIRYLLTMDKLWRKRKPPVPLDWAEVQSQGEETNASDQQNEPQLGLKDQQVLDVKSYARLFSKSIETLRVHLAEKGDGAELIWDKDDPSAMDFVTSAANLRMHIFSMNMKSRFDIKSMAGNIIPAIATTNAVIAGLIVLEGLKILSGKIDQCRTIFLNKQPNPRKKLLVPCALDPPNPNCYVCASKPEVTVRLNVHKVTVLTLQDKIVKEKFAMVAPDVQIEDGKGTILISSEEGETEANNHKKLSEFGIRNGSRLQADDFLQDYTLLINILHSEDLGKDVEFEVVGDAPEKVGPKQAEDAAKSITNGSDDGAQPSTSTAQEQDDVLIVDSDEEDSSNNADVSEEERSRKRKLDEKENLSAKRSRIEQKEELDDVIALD
# T5 sequence (P11940 whole entry, the tested form may be a part): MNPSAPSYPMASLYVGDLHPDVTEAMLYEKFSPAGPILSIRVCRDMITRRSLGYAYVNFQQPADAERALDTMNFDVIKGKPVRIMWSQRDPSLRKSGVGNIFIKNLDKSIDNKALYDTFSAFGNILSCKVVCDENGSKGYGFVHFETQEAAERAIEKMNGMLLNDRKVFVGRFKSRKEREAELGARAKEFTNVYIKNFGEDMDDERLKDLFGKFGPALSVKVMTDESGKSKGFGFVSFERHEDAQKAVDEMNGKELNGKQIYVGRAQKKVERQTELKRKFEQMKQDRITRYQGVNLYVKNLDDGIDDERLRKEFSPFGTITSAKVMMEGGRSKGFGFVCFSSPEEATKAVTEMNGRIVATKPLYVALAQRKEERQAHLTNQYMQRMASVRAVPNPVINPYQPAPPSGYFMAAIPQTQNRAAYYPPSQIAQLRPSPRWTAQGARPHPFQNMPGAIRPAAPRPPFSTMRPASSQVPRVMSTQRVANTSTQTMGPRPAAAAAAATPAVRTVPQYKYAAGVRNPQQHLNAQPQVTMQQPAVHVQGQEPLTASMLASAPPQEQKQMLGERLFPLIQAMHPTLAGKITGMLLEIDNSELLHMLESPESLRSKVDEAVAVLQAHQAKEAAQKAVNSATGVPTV
# Sequence of Caspase-8 (Q14790 217-374 limits assumed): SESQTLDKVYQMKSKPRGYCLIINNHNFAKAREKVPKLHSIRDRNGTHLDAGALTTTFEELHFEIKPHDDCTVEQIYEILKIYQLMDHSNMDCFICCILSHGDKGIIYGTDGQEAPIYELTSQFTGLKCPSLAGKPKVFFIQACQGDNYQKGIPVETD
# Sequence of Caspase-8 (Q14790 385-479 limits assumed): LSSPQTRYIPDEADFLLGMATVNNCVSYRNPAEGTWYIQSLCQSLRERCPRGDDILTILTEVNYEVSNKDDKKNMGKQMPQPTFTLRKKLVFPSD
# Sequence of Caspase-9 (P55211 1-315 limits assumed): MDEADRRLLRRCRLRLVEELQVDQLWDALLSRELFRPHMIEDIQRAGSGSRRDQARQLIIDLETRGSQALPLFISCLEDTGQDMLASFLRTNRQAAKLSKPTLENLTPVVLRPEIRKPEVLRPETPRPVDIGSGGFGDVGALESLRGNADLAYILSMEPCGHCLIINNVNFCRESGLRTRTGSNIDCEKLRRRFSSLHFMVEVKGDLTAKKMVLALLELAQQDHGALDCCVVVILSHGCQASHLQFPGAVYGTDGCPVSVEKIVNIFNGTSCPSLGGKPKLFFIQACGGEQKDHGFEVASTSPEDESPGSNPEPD
# Sequence of Caspase-9 (P55211 331-416 limits assumed): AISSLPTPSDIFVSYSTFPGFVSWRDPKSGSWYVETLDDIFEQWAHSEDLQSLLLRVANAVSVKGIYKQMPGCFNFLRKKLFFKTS
# Sequence of Melanocortin receptor 4 (P32245 whole entry): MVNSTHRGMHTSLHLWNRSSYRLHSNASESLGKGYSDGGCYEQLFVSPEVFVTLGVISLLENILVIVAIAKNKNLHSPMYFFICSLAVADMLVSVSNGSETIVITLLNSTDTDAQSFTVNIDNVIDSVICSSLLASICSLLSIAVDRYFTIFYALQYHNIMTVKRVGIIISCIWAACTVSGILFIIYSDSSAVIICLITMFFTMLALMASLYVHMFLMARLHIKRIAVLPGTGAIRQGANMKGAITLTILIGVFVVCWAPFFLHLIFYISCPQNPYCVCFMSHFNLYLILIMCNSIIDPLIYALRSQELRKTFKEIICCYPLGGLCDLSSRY
# Sequence of Hexokinase HKDC1 (Q2TB90 whole entry): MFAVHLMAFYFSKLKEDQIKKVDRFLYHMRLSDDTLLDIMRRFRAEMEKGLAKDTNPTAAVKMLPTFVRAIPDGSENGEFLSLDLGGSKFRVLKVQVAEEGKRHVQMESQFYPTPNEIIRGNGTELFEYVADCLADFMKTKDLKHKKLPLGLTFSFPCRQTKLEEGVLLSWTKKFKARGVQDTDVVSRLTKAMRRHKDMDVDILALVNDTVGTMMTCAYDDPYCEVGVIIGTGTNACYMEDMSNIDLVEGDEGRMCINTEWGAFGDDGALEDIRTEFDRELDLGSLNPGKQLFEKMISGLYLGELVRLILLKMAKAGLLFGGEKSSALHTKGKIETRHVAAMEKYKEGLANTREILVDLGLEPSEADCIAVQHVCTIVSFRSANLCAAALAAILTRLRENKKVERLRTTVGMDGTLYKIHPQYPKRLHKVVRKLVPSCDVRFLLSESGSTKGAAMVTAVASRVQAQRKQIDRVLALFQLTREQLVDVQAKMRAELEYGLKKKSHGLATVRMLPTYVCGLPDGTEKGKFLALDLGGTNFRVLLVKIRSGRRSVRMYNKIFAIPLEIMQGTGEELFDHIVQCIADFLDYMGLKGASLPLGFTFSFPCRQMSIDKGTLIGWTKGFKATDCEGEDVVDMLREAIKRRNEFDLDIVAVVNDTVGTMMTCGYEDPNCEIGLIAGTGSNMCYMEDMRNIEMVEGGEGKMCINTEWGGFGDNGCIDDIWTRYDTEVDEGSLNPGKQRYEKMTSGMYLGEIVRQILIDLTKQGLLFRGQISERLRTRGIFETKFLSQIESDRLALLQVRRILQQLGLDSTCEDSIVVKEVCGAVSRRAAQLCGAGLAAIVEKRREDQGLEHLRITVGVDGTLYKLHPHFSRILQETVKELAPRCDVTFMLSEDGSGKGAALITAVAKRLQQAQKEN
# Sequence of Neurotensin receptor type 1 (P30989 whole entry): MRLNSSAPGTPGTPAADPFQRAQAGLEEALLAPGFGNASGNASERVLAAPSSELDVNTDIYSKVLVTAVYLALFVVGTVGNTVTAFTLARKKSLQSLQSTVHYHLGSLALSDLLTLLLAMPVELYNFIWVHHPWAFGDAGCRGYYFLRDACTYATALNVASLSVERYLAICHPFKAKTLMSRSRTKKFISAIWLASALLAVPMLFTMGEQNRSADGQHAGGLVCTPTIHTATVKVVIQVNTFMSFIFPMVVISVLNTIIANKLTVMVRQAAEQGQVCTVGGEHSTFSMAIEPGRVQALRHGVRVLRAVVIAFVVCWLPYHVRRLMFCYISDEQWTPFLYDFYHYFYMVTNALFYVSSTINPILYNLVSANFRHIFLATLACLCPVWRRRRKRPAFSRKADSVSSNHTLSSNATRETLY
smiles,measurement,setting,value
COc1cc2c(cc1OC)-c1c(OC)c(OC)cc3c1[C@H](C2)N(C)CC3,AC50,Caspase-8,48.1 µM (active)
same,AC50,Caspase-3,6.27 µM (active)
same,AC50,Caspase-9,39.9 µM (active)
O=C1C(Cl)=C(N2CCC(C(=O)O)CC2)C(=O)c2ccccc21,IC50,SUMO-activating enzyme [1],24 µM (active)
same,IC50,Hexokinase HKDC1,8.29 µM (active)
same,IC50,SUMO-activating enzyme [2],5.75 µM (active)
CCCCCCCCCCOC(=O)Cn1c(COc2ccc(OC)cc2)[n+](C)c2ccccc21,AC50,[3],3.44 µM (active)
same,IC50,[4],11 µM (active)
same,AC50,[5],38.2 µM (active)
same,EC50,[6],15.8 µM (active)
same,EC50,Melanocortin receptor 4,> 89.2 µM (inactive)
same,AC50,"INS1; Rattus norvegicus, INS1",3.65 µM (active)
same,AC50,INS1; ins1,3.47 µM (active)
same,IC50,Bcl-2-related protein A1,19.1 µM (active)
same,AC50,[7],2.01 µM (active)
COC1=C(c2ccccc2)C(=O)c2ccccc2C1=O,IC50,[8],> 66 µM (inactive)
same,IC50,[9],> 66 µM (inactive)
same,AC50,[10],9.05 µM (active)
same,CC50,Vero,17.8 µM (active)

# — ChEMBL document CHEMBL1201862, “PubChem BioAssay data set” (2004)
